The record followed here is patent US8962660B2 (Bristol-Myers Squibb Company, priority 2013, dated 2015).

Usually EC50 stands for the concentration needed to bring the measured effect to its halfway point. A higher EC50 goes with weaker potency.

This test concerns the target T1, human GPR120 (Homo sapiens, UniProt Q5NUL3).
T1 construct: expressed in transfected cells; host or cells: CHOA12 cells
T1 sequence (Q5NUL3 1-361): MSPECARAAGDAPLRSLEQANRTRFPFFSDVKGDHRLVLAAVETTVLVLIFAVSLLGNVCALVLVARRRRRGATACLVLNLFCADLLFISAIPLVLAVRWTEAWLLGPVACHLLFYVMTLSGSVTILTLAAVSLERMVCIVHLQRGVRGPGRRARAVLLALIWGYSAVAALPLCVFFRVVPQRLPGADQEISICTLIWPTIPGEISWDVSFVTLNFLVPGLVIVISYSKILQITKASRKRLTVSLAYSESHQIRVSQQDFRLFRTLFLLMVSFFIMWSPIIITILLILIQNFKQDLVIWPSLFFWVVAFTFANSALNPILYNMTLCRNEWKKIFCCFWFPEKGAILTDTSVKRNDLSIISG
Nature of the test: GPR120 pERK AlphaScreen SureFire assay (human). It is filed as cell-based. As to conditions: CHO cells stably transfected with short form of human GPR120. Put shortly:
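CHOA12 cells stably expressing short-form human GPR120, serum-starved 2 h, were stimulated 7 min at 37 °C with compound (33.33 μM–0.56 nM, 11-point). pERK read by AlphaScreen SureFire; activation normalized to 50 μM linolenic acid and DMSO blank, EC50 by 4-parameter fit.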
As to `Cc1cc(Oc2cc(F)cc(C34CCC(CCOCC(=O)O)(CC3)CO4)c2)ccc1F` [Example 81, 2-(2-(1-(3-fluoro-5-(4-fluoro-3-methylphenoxy)phenyl)-2-oxabicyclo [2.2.2]octan-4-yl)ethoxy) acetic acid], a half-maximal response (EC50) required 520 nM.

`COc1cccc(Oc2cc(F)cc(C34CCC(CCOCC(=O)O)(CC3)CO4)c2)c1` [Example 82, 2-(2-(1-(3-fluoro-5-(3-methoxyphenoxy)phenyl)-2-oxabicyclo[2.2.2]octan-4-yl)ethoxy)acetic acid] had a concentration for a half-maximal effect (EC50) of 810 nM. On to `Cc1ccc(Oc2cc(F)cc(C34CCC(CCOCC(=O)O)(CC3)CO4)c2)cc1` [Example 83, 2-(2-(1-(3-fluoro-5-(p-tolyloxy)phenyl)-2-oxabicyclo[2.2.2]octan-4-yl)ethoxy)acetic acid], for which the EC50 is 320 nM. `COc1cc(F)cc(Oc2cc(F)cc(C34CCC(CCOCC(=O)O)(CC3)CO4)c2)c1` [Example 84, 2-(2-(1-(3-fluoro-5-(3-fluoro-5-methoxyphenoxy)phenyl)-2-oxabicyclo [2.2.2]octan-4-yl)ethoxy) acetic acid] gave a 50% effective concentration (EC50) of 470 nM. This EC50 and that of the compound before are within 1.5-fold of each other. Take `O=C(O)COCCC12CCC(c3cc(F)cc(Oc4ccc(F)cc4)c3)(CC1)OC2` [Example 85, 2-(2-(1-(3-fluoro-5-(4-fluorophenoxy)phenyl)-2-oxabicyclo[2.2.2]octan-4-yl)ethoxy)acetic acid]: a half-maximal response (EC50) required 310 nM. This EC50 is about 1.5-fold lower than that of the compound before. Under `COc1cc(Oc2cc(F)cc(C34CCC(CCOCC(=O)O)(CC3)CO4)c2)ccc1F` [Example 86, 2-(2-(1-(3-fluoro-5-(4-fluoro-3-methoxyphenoxy)phenyl)-2-oxabicyclo [2.2.2]octan-4-yl)ethoxy) acetic acid] stands 850 nM.

For `O=C(O)COCCC12CCC(c3ccc(F)c(Oc4ccccc4)c3)(CC1)OC2` [Example 87, 2-(2-(1-(4-fluoro-3-phenoxyphenyl)-2-oxabicyclo[2.2.2]octan-4-yl)ethoxy)acetic acid], the response was half-maximal at 410 nM (EC50).

Compound `O=C(O)COCCC12CCC(c3ccc(F)c(Oc4ccc(F)cc4)c3)(CC1)OC2` [Example 88, 2-(2-(1-(4-fluoro-3-(4-fluorophenoxy)phenyl)-2-oxabicyclo[2.2.2]octan-4-yl)ethoxy)acetic acid] returned an EC50 of 340 nM.

As for `Cc1ccc(Oc2cc(C34CCC(CCOCC(=O)O)(CC3)CO4)ccc2F)cc1F` [Example 89, 2-(2-(1-(4-fluoro-3-(3-fluoro-4-methylphenoxy)phenyl)-2-oxabicyclo [2.2.2]octan-4-yl)ethoxy) acetic acid], a half-maximal response (EC50) required 350 nM.

`COc1cc(Oc2ccccc2)cc(C23CCC(CCOCC(=O)O)(CC2)CO3)c1` [Example 90, 2-(2-(1-(3-methoxy-5-phenoxyphenyl)-2-oxabicyclo[2.2.2]octan-4-yl)ethoxy)acetic acid] gave an EC50 of 950 nM.

Regarding `COc1cc(Oc2ccc(F)c(F)c2)cc(C23CCC(CCOCC(=O)O)(CC2)CO3)c1` [Example 91, 2-(2-(1-(3-(3,4-difluorophenoxy)-5-methoxyphenyl)-2-oxabicyclo[2.2.2]octan-4-yl)ethoxy)acetic acid], it took 630 nM to reach a half-maximal effect (EC50). Under `COc1cc(Oc2ccc(F)cc2)cc(C23CCC(CCOCC(=O)O)(CC2)CO3)c1` [Example 92, 2-(2-(1-(3-(4-fluorophenoxy)-5-methoxyphenyl)-2-oxabicyclo[2.2.2]octan-4-yl)ethoxy)acetic acid] stands 800 nM; under `COc1cc(Oc2ccc(C)c(F)c2)cc(C23CCC(CCOCC(=O)O)(CC2)CO3)c1` [Example 93, 2-(2-(1-(3-(3-fluoro-4-methylphenoxy)-5-methoxyphenyl)-2-oxabicyclo[2.2.2]octan-4-yl)ethoxy)acetic acid], 520 nM; under `Cc1ccc(Oc2cc(F)cc(C34CCC(CCOCC(=O)NO)(CC3)CO4)c2)cc1F` [Example 94, 2-(2-(1-(3-Fluoro-5-(3-fluoro-4-methylphenoxy)phenyl)-2-oxabicyclo[2.2.2]octan-4-yl)ethoxy)-N-hydroxyacetamide], 1160 nM. Under `O=C(O)COCCC12CCC(c3cc(F)c(F)c(Oc4ccc(F)cc4)c3)(CC1)OC2` [Example 95, 2-(2-(1-(3,4-Difluoro-5-(4-fluorophenoxy)phenyl)-2-oxabicyclo[2.2.2]octan-4-yl)ethoxy) acetic acid] stands 350 nM; under `O=C(O)C1CC1COC12CCC(c3cccc(Oc4ccccc4)c3)(CC1)OC2` (centres unmarked) [Example 96, 2-(((1-(3-Phenoxyphenyl)-2-oxabicyclo[2.2.2]octan-4-yl)oxy)methyl) cyclopropanecarboxylic acid], 1680 nM. As to `O=C(O)C1CC1COCC12CCC(c3cccc(Oc4ccccc4)c3)(CC1)OC2` (stereo not drawn) [Example 97, Trans-2-(((1-(3-phenoxyphenyl)-2-oxabicyclo[2.2.2]octan-4-yl)methoxy)methyl) cyclopropane carboxylic acid], the concentration giving a half-maximal response (EC50) was determined as 390 nM. Under `COc1ccc(Oc2cccc(C34CCC(CCOCC(=O)O)(CC3)OC4)c2)cc1F` [Example 100, 2-(2-(4-(3-(3-Fluoro-4-methoxyphenoxy)phenyl)-2-oxabicyclo[2.2.2]octan-1-yl)ethoxy) acetic acid] stands 550 nM; under `Cc1ccc(Oc2cccc(C34CCC(CCOCC(=O)O)(CC3)OC4)c2)cc1F` [Example 101], 320 nM. Under `COc1cccc(Oc2cccc(C34CCC(CCOCC(=O)O)(CC3)OC4)c2)c1` [Example 102] stands 660 nM; under `Cc1cc(Oc2cccc(C34CCC(CCOCC(=O)O)(CC3)OC4)c2)ccc1F` [Example 103], 540 nM; under `O=C(O)COCCC12CCC(c3cccc(Oc4cccnc4)c3)(CC1)CO2` [Example 104], 7780 nM. Under `O=C(O)COCCC12CCC(c3cccc(Oc4ccc(F)cc4)c3)(CC1)CO2` [Example 105] stands 3440 nM. In turn, `Cc1ccc(Oc2cccc(C34CCC(CCOCC(=O)O)(CC3)OC4)c2)cc1` [Example 106] showed a 50% effective concentration (EC50) of 580 nM. Compared with the last compound, the EC50 is about 5.9-fold lower.

With `N#Cc1cccc(Oc2cccc(C34CCC(CCOCC(=O)O)(CC3)OC4)c2)c1` [Example 107], the concentration for a half-maximal effect (EC50) came to 1870 nM. Under `Cc1ccc(Oc2cc(F)cc(C34CCC(CCOCC(=O)O)(CC3)OC4)c2)cc1F` [Example 108, 2-(2-(4-(3-Fluoro-5-(3-fluoro-4-methylphenoxy)phenyl)-2-oxabicyclo[2.2.2]octan-1-yl)ethoxy)acetic acid] stands 730 nM; under `O=C(O)COCCC12CCC(c3cccc(Oc4ccccn4)c3)(CC1)CO2` [Example 109, 2-(2-(4-(3-(Pyridin-2-yloxy)phenyl)-2-oxabicyclo[2.2.2]octan-1-yl)ethoxy)acetic acid], 5550 nM. Turning to `O=C(O)COCCCC12CCC(c3cccc(Oc4ccccc4)c3)(CC1)CO2` [Example 110, 2-(3-(4-(3-Phenoxyphenyl)-2-oxabicyclo[2.2.2]octan-1-yl)propoxy)acetic acid], the EC50 was found to be 490 nM. The compound `O=C(O)COCCC12CCC(c3cccc(OC4CCCCC4)c3)(CC1)CO2` [Example 111, 2-(2-(4-(3-(Cyclohexyloxy)phenyl)-2-oxabicyclo[2.2.2]octan-1-yl)ethoxy) acetic acid] had an EC50 of 640 nM. The EC50 values of the last two compounds are within 1.5-fold of each other. Under `Cc1ccc(Oc2cc(C34CCC(CCOCC(=O)O)(CC3)OC4)ccc2F)cc1F` [Example 112] stands 270 nM; under `Cc1ccc(Oc2cc(C34CCC(CCOCC(=O)O)(CC3)OC4)ccc2F)cc1C` [Example 113], 860 nM; under `Cc1cc(Oc2cc(C34CCC(CCOCC(=O)O)(CC3)OC4)ccc2F)ccc1C#N` [Example 114], 2730 nM.

Turning to `Cc1ccc(Oc2cccc(C34CCC(CCOCC(=O)O)(CC3)CO4)c2)cn1` [Example 115, 2-(2-(1-(3-(6-methylpyridin-3-yloxy)phenyl)-2-oxabicyclo[2.2.2]octan-4-yl)ethoxy)acetic acid], a half-maximal response (EC50) required 5560 nM.

Turning to `O=C(O)COCCC12CCC(c3cccc(Oc4ccc(F)c(F)c4)n3)(CC1)OC2` [Example 116, 2-(2-(1-(6-(3,4-Difluorophenoxy)pyridin-2-yl)-2-oxabicyclo[2.2.2]octan-4-yl)ethoxy) acetic acid], the 50% effective concentration (EC50) worked out at 1150 nM. `O=C(O)COCCC12CCC(c3cccc(Oc4cccc(O)c4)c3)(CC1)OC2` [Example 117, 2-(2-(1-(3-(3-Hydroxyphenoxy)phenyl)-2-oxabicyclo[2.2.2]octan-4-yl)ethoxy)acetic acid] came in with a concentration giving a half-maximal response (EC50) of 5210 nM.

Consider `CCc1cccc(Oc2cccc(C34CCC(CC[C@@H]5C[C@H]5C(=O)O)(CC3)CO4)c2)c1` [Example 118, (1R,2R)-2-(2-(1-(3-(3-Ethylphenoxy)phenyl)-2-oxabicyclo[2.2.2]octan-4-yl)ethyl)cyclo-propane carboxylic acid], for which the concentration for a half-maximal effect (EC50) was 1890 nM. Under `CCc1cccc(Oc2cccc(C34CCC(CCOCC(=O)O)(CC3)CO4)c2)c1` [Example 119, 2-(2-(1-(3-(3-Ethylphenoxy)phenyl)-2-oxabicyclo[2.2.2]octan-4-yl)ethoxy)acetic acid] stands 1600 nM; under `O=C(O)C1CC1CCCC12CCC(c3cccc(Oc4ccccc4)c3)(CC1)OC2` (centres unmarked) [Example 120, 2-(3-(1-(3-Phenoxyphenyl)-2-oxabicyclo[2.2.2]octan-4-yl)propyl) cyclopropane carboxylic acid], 2210 nM.
